What all share (assay type): cell-based
For one test, the system named is Caco-2 cells. Put plainly: MTT cell viability assay in Caco-2 cells. The conditions noted are these: Homo sapiens, Caco-2, 72 h, read-out: IC50 Caco-2. The method, then: (§1) The MTT assay was used to assess the effect of the compounds on cell viability. For this purpose, A375 (1500 cells per well), BJ (10 000 cells per well), Caco-2 (4000 cells per well), HCT116 (3000 cells per well), Mia Paca-2 (2000 cells per well), SW480 (6000 cells per well), and SW620 (8000 cells per well) cells were seeded in 96-well plates and incubated for 24 h. Subsequently, the culture medium was switched with a new medium containing DMSO (control) or the compound at a specified concentration. Following a 72 h incubation period, the supernatant was aspirated, and 100 μL of a mixture (1 : 1) of filtered MTT solution (1 mg per mL PBS) and FBS-free medium was added. The plates were then incubated for 1 h at 37 °C. After this time, the supernatant was aspirated, and the formazan crystals were dissolved in 100 μL of DMSO in each well. Relative cell viability was calculated by measuring absorbance at 570 nm using a Benchmark Plus Microplate Reader (Bio-Rad Laboratories, Hercules, CA, USA). Results are presented as the mean ± standard deviation (SD) of IC50 values, determined by nonlinear regression analysis of dose–response curves (log(inhibitor) vs. response with variable slope (four parameters)) using GraphPad Prism 9 software (GraphPad Software, San Diego, CA, USA).
(Tetrazolium dyes change colour on reduction, which living cells bring about.)

In the next test the test system is cyclin A. Put plainly: Western blot of cyclin A levels in SW480 cells. The conditions noted are these: SW480, 6.3 μM, relative to control. The method, then:
(§2) SW480 cells were seeded in 6-well plates and treated as described in the previous subsection. After 24, 48 or 72 h of incubation, adherent cells were washed twice with ice-cold DPBS and incubated with lysis buffer (0.2% Triton X-100, 0.5 mM sodium deoxycholate, 1 mM Na-EDTA, 1 mM DTT, 20 mM Tris–HCl (pH 7.5), 0.5% phosphatases inhibitor cocktail, and 1% proteases inhibitor cocktail) for 30 min at 4 °C. The cells were scraped, sonicated, and centrifuged at 120 00 × g (20 min at 4 °C). […] The gels were then transferred to PVDF membranes, which were blocked with 5% skim milk in PBS-Tween-20 (0.1%) for 1 h at room temperature. Subsequently, the membranes were incubated with the primary antibodies for 30 mi at room temperature (actin) or overnight at 4 °C (CDK4, CDK6, cyclin A, Rb and SOD2/MnSOD). After incubation, the membranes were washed with PBS-Tween-20 (0.1%) and incubated with anti-mouse secondary antibody (40 min) or anti-rabbit secondary antibody (1 h) at room temperature. Finally, the membranes were washed with PBS-Tween-20 (0.1%) and treated with the Immobilon Western Chemiluminescent HRP Substrate Kit, and autoradiography was performed using an FPM-100A film processor (Fujifilm, Tokyo, Japan). western blot results were obtained from three independent experiments, except for cyclin A at 24 h (n = 2), Rb protein at 24 and 72 h (n = 2), and SOD2 (MnSOD) at 72 h (n = 2).
(A western blot detects proteins with antibodies after separation by electrophoresis.)

The next test has as its system CDK4. Put plainly: Western blot of CDK4 levels in SW480 cells. The conditions noted are these: SW480, 6.3 μM, relative to control. The method, then: as §2
Test [1] deals with SW480 cells. Put plainly: Cell cycle assay (PI, flow cytometry). As to the method: To validate this hypothesis, compound 17 was administered at 6.3 μM to SW480 cells and incubated for 24, 48, and 72 h. Following each incubation period, the cells were fixed and permeabilized with 70% cold ethanol and stained with PI before flow cytometry analysis. At 24 h, compound 17 caused cell cycle arrest at the G0/G1 phase, as evidenced by a significant increase in the percentage of SW480 cells, from 54% in the control group to 66% in the treated group (Fig. 6). […] At 72 h, compound 17 had no impact on the cell cycle of SW480 cells, as observed in Fig. 6.
SW480 cells were seeded, treated, incubated, and collected, as described for the apoptosis assay. After centrifugation, the cells were resuspended in 500 μL DPBS, added dropwise to 4.5 mL of 70% (v/v) cold ethanol, and stored at −20 °C for at least 4 h. Each cell suspension was centrifuged, washed with cold DPBS, and resuspended in 350 μL DPBS and 10 μL RNase (10 mg mL^−1). After 1 h of incubation at 37 °C with agitation, the cells were stained with 20 μL of PI solution (1 mg mL^−1). A Gallios flow cytometer (Beckman Coulter, Brea, CA, USA) at a wavelength of 488 nm was used for FACS analysis. Data from 1 × 10^4 cells were collected, and a multicycle software (Phoenix Flow Systems, San Diego, CA, USA) was used for cell cycle analysis.
(A flow cytometer gives signals particle by particle.)

Another test deals with HCT116 cells. Put plainly: MTT cell viability assay in HCT116 cells. The method, then: The MTT assay was used to assess the effect of the compounds on cell viability. […] Subsequently, the culture medium was switched with a new medium containing DMSO (control) or the compound at a specified concentration. […] The plates were then incubated for 1 h at 37 °C. After this time, the supernatant was aspirated, and the formazan crystals were dissolved in 100 μL of DMSO in each well. Relative cell viability was calculated by measuring absorbance at 570 nm using a Benchmark Plus Microplate Reader (Bio-Rad Laboratories, Hercules, CA, USA).

The subject of a further test is Mia Paca-2 cells. Put plainly: MTT cell viability assay in Mia Paca-2 cells. The conditions noted are these: Homo sapiens, MIA PaCa-2, 72 h, read-out: IC50 Mia Paca-2. As to the method:
as §1

In a further test the test system is A375 cells. Put plainly: MTT cell viability assay in A375 cells. The conditions noted are these: Homo sapiens, A-375, 72 h, read-out: IC50 A375. The method, then: as §1
In a further test the test system is SW620 cells. Put plainly: MTT cell viability assay in SW620 cells. The conditions noted are these: Homo sapiens, SW-620, 72 h, read-out: IC50 SW620. As to the method: as §1
Another test has as its system SOD2/MnSOD. Put plainly: Western blot of SOD2/MnSOD levels in SW480 cells. The conditions noted are these: SW480, 6.3 μM, 24 and 72 h, relative to control. As to the method: as §2
Another test concerns BJ cells. Put plainly: MTT cell viability assay in non-tumoral BJ fibroblasts. As to the method: as §1
Another test concerns CDK6. Put plainly: Western blot of CDK6 levels in SW480 cells. The conditions noted are these: SW480, 6.3 μM, relative to control. As to the method:
as §2

The subject of test [2] is SW480 cells. Put plainly: MTT cell viability assay in SW480 cells. The method, then: as §1
Where [3] appears, read: SW480 cells, ratio of IC50 values.

A word on the IC50: it is the midpoint of a concentration-inhibition curve. Take `CC(=O)Oc1c(C(C)C)cc2c(c1OC(C)=O)[C@@]1(NC(=O)OCC(C)C)CCCC(C)(C)[C@@H]1CC2` [Compound 17, (4bR,8aS)-8,8-Dimethyl-4b-{[(2-methylpropoxy)carbonyl]amino}-2-(propan-2-yl)-4b,5,6,7,8,8a,9,10-octahydrophenanthrene-3,4-diyl diacetate]: the half-inhibitory concentration (IC50) in the test on Caco-2 cells is 16 ± 2 µM; in the test with HCT116 cells (Homo sapiens, HCT-116, 72 h, read-out: IC50 HCT116) it was 17 ± 2 µM; in the test on Mia Paca-2 cells it was 7.5 ± 0.6 µM; in the test with A375 cells it was 6.7 ± 0.5 µM; in the test with SW620 cells it was 10 ± 1 µM; with BJ cells (Homo sapiens, BJ, MTT assay, 72 h incubation) it was > 50 µM. Moreover, the IC50 in the test with SW480 cells [2] (Homo sapiens, SW480, 72 h, read-out: IC50 SW480) is 6.3 ± 0.5 µM. The “cyclin A expression” value in the test with cyclin A (24 h) is on record as “decrease”; with cyclin A (48 h), “did not affect”. Also, the results for the CDK4 protein level entry in the test with CDK4 (24 h), in the test on CDK4 (48 h) and with CDK4 (72 h) were “significantly reduced”, “lower than those in the control group” and “reduction”, respectively. For the same compound, in the test on SW480 cells [1] (6.3 μM, 24 h (control 54%)), the “percentage of SW480 cells in G0/G1 phase” value was 66%. Besides, the “percentage of SW480 cells in S phase” value with SW480 cells [1] (6.3 μM, 48 h (control 30%)) came to 40%. For the same compound, in the test on SW480 cells [1] (SW480, 6.3 μM, 72 h), the “effect on the cell cycle” value was “no impact”. Also, the “fold more active than cisplatin” value in the test on HCT116 cells (HCT116 cells, ratio of IC50 values) turned out to be 1.2 fold; in the test with SW480 cells [2] (setting [3]) it was 2.4 fold. In addition, the “expression of SOD2/MnSOD” value in the test with SOD2/MnSOD was “significantly increased”. Also, the “times less potent in BJ cells than in cancer cell lines (selectivity)” value in the test on BJ cells (BJ vs cancer cell lines) was 3–8 times. Further, the CDK6 protein level entry with CDK6 (24 h) is listed as “significantly reduced”; in the test with CDK6 (48 h), “lower than those in the control group”. Moreover, the “fold more potent than CA 1” value in the test on SW480 cells [2] (setting [3]) is reported as 3.5 fold.

(Values after paper PMC12498136, “Synthesis and biological evaluation of novel carnosic acid derivatives with anticancer activity” (RSC Advances, 2025).)
